Experimental data as given in publication PMC6591251, “Discovery of potent necroptosis inhibitors targeting RIPK1 kinase activity for the treatment of inflammatory disorder and cancer metastasis” (Cell Death & Disease, 2019).

What was measured:
Test in all cases: RBC kinase panel
Format in all cases: biochemical
Conditions in all cases: ATP 10 μM, Data1, Data2
ALK4/ACVR1B = biological target: T1, ALK4/ACVR1B (Homo sapiens, UniProt P36896)
T1 construct: purchased Reaction Biology Corporation
Method in brief: (§1)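 Kinome-wide single-dose profiling: compound at 1 μM versus 369 human enzymes, two replicates per kinase, ATP concentration 10 μM.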

ARAF = biological target: T2, ARAF (Homo sapiens, UniProt P10398)
T2 construct: purchased Reaction Biology Corporation
Method in brief: as §1

AXL = biological target: T3, AXL (Homo sapiens, UniProt P30530)
T3 construct: purchased Reaction Biology Corporation
Method in brief: as §1

CAMKK1 = biological target: T4, CAMKK1 (Homo sapiens, UniProt Q8N5S9)
T4 construct: purchased Reaction Biology Corporation
Method in brief: as §1

CDK1/cyclin A = biological target: T5, CDK1/cyclin A (Homo sapiens, UniProt P06493)
T5 construct: purchased Reaction Biology Corporation
Method in brief: as §1

CDK4/cyclin D1 = biological target: T6, CDK4/cyclin D1 (Homo sapiens, UniProt P11802)
T6 construct: purchased Reaction Biology Corporation
Method in brief: as §1

CDK4/cyclin D3 = biological target: T7, CDK4/cyclin D3 (Homo sapiens, UniProt P11802)
T7 construct: purchased Reaction Biology Corporation
Method in brief: as §1

CDK9/cyclin T1 = biological target: T8, CDK9/cyclin T1 (Homo sapiens, UniProt P50750)
T8 construct: purchased Reaction Biology Corporation
Method in brief: as §1

DCAMKL1 = biological target: T9, DCAMKL1 (Homo sapiens, UniProt O15075)
T9 construct: purchased Reaction Biology Corporation
Method in brief: as §1

EPHA5 = biological target: T10, EPHA5 (Homo sapiens, UniProt P54756)
T10 construct: purchased Reaction Biology Corporation
Method in brief: as §1

ERBB2/HER2 = biological target: T11, ERBB2/HER2 (Homo sapiens, UniProt P04626)
T11 construct: purchased Reaction Biology Corporation
Method in brief: as §1

ERN1/IRE1 = biological target: T12, ERN1/IRE1 (Homo sapiens, UniProt O75460)
T12 construct: purchased Reaction Biology Corporation
Method in brief: as §1

FGFR4 = biological target: T13, FGFR4 (Homo sapiens, UniProt P22455)
T13 construct: purchased Reaction Biology Corporation
Method in brief: as §1

GRK2 = biological target: T14, GRK2 (Homo sapiens, UniProt P25098)
T14 construct: purchased Reaction Biology Corporation
Method in brief: as §1

JNK1 = biological target: T15, JNK1 (Homo sapiens, UniProt P45983)
T15 construct: purchased Reaction Biology Corporation
Method in brief: as §1

LIMK1 = biological target: T16, LIMK1 (Homo sapiens, UniProt P53667)
T16 construct: purchased Reaction Biology Corporation
Method in brief: as §1

LYN B = biological target: T17, LYN B (Homo sapiens, UniProt P07948)
T17 construct: purchased Reaction Biology Corporation
Method in brief: as §1

MLCK/MYLK = biological target: T18, MLCK/MYLK (Homo sapiens, UniProt Q15746)
T18 construct: purchased Reaction Biology Corporation
Method in brief: as §1

NEK7 = biological target: T19, NEK7 (Homo sapiens, UniProt Q8TDX7)
T19 construct: purchased Reaction Biology Corporation
Method in brief: as §1

PIM2 = biological target: T20, PIM2 (Homo sapiens, UniProt Q9P1W9)
T20 construct: purchased Reaction Biology Corporation
Method in brief: as §1

PKA = biological target: T21, PKA (Homo sapiens, UniProt P17612)
T21 construct: purchased Reaction Biology Corporation
Method in brief: as §1

PKCb2 = biological target: T22, PKCb2 (Homo sapiens, UniProt P05771)
T22 construct: purchased Reaction Biology Corporation
Method in brief: as §1

PLK2 = biological target: T23, PLK2 (Homo sapiens, UniProt Q9NYY3)
T23 construct: purchased Reaction Biology Corporation
Method in brief: as §1

SGK3/SGKL = biological target: T24, SGK3/SGKL (Homo sapiens, UniProt Q96BR1)
T24 construct: purchased Reaction Biology Corporation
Method in brief: as §1

SLK/STK2 = biological target: T25, SLK/STK2 (Homo sapiens, UniProt Q9H2G2)
T25 construct: purchased Reaction Biology Corporation
Method in brief: as §1

STK32B/YANK2 = biological target: T26, STK32B/YANK2 (Homo sapiens, UniProt Q9NY57)
T26 construct: purchased Reaction Biology Corporation
Method in brief: as §1

TAOK3/JIK = biological target: T27, TAOK3/JIK (Homo sapiens, UniProt Q9H2K8)
T27 construct: purchased Reaction Biology Corporation
Method in brief: as §1

TLK1 = biological target: T28, TLK1 (Homo sapiens, UniProt Q9UKI8)
T28 construct: purchased Reaction Biology Corporation
Method in brief: as §1

TYK2 = biological target: T29, TYK2 (Homo sapiens, UniProt P29597)
T29 construct: purchased Reaction Biology Corporation
Method in brief: as §1

VRK1 = biological target: T30, VRK1 (Homo sapiens, UniProt Q99986)
T30 construct: purchased Reaction Biology Corporation
Method in brief: as §1

WNK3 = biological target: T31, WNK3 (Homo sapiens, UniProt Q9BYP7)
T31 construct: purchased Reaction Biology Corporation
Method in brief: as §1

ZAK/MLTK = biological target: T32, ZAK/MLTK (Homo sapiens, UniProt Q9NYL2)
T32 construct: purchased Reaction Biology Corporation
Method in brief: as §1

p70S6K/RPS6KB1 = biological target: T33, p70S6K/RPS6KB1 (Homo sapiens, UniProt P23443)
T33 construct: purchased Reaction Biology Corporation
Method in brief: as §1

T4 sequence (Q8N5S9 whole entry): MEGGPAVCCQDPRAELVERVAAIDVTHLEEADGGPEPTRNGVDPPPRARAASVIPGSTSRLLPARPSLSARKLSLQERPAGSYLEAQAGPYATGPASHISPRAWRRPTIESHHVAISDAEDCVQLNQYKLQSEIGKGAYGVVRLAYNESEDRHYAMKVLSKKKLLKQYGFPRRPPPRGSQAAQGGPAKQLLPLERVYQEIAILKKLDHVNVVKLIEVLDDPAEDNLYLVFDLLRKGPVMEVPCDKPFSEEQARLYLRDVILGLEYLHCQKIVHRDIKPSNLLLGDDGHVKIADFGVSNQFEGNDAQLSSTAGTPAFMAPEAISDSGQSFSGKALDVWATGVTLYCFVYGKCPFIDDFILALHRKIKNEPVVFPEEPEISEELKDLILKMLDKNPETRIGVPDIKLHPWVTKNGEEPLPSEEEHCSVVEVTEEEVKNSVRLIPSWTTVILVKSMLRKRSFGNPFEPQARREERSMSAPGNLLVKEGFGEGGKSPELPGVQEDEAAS
T11 sequence (P04626 23-1255): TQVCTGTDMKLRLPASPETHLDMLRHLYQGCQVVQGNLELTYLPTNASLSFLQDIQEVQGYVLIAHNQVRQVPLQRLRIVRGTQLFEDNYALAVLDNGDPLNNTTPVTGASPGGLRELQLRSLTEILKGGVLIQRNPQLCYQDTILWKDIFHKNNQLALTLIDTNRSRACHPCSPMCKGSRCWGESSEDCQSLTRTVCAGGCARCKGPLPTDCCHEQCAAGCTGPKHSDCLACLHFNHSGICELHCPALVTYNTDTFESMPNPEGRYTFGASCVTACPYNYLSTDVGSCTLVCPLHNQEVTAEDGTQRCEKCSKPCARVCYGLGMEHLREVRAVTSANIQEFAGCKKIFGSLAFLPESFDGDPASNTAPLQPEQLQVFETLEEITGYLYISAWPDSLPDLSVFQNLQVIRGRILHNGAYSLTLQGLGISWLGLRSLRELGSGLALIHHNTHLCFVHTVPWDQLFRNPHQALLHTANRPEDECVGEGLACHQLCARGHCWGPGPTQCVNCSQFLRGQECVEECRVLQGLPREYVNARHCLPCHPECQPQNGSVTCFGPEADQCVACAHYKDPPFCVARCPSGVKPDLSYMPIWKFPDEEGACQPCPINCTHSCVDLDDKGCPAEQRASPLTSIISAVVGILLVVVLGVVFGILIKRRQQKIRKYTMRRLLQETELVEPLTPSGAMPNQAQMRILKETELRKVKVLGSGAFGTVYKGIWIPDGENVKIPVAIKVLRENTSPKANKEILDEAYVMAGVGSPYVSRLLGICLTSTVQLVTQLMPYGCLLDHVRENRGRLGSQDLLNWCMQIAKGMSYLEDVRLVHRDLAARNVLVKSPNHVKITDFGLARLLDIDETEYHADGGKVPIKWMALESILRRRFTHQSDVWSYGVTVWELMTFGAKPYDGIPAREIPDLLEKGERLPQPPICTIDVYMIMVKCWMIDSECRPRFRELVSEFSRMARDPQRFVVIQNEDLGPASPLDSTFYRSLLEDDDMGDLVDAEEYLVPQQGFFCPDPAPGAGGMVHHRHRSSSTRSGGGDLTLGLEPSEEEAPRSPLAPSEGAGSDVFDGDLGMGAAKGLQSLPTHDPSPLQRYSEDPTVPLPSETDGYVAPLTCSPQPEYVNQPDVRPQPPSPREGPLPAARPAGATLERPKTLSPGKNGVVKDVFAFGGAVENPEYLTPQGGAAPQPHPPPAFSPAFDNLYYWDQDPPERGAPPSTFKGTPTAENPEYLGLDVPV
T20 sequence (Q9P1W9 whole entry): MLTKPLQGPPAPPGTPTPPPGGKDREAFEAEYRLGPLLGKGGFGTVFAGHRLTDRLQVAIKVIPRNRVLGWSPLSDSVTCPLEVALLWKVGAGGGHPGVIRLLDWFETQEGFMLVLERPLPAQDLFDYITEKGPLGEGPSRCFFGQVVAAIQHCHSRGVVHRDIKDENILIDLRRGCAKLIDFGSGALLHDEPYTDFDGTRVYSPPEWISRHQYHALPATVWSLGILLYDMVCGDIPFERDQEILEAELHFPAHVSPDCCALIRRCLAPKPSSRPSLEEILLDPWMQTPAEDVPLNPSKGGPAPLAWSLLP
T15 sequence (P45983 whole entry): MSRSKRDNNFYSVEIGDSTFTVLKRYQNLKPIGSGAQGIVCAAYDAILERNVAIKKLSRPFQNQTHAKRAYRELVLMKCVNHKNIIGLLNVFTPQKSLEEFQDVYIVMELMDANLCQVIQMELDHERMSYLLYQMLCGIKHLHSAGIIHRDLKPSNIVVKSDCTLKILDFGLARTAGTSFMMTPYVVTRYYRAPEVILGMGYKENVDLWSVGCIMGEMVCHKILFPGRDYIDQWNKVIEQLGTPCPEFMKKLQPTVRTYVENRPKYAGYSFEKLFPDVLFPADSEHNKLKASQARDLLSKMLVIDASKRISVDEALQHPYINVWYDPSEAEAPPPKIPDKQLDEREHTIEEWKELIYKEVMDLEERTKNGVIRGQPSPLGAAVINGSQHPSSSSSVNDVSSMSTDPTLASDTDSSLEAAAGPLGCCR
T9 sequence (O15075 whole entry): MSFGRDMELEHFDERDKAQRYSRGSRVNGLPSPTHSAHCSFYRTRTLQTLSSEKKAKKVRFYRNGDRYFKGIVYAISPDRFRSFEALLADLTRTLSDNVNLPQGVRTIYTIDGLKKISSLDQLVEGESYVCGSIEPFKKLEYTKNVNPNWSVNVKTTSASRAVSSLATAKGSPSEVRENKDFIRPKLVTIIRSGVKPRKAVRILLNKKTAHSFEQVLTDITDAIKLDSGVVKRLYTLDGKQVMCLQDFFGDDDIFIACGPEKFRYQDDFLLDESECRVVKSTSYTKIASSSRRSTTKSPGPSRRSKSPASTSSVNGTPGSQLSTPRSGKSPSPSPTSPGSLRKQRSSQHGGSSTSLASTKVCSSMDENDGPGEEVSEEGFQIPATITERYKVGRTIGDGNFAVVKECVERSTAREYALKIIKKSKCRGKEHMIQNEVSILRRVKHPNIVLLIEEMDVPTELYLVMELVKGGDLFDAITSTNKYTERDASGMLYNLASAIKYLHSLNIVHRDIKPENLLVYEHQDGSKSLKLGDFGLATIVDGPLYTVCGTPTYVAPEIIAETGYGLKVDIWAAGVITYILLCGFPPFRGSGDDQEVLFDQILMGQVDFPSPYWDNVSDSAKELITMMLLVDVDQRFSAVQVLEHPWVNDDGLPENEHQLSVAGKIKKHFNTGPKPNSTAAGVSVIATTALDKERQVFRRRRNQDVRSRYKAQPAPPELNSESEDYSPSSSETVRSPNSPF
T16 sequence (P53667 whole entry): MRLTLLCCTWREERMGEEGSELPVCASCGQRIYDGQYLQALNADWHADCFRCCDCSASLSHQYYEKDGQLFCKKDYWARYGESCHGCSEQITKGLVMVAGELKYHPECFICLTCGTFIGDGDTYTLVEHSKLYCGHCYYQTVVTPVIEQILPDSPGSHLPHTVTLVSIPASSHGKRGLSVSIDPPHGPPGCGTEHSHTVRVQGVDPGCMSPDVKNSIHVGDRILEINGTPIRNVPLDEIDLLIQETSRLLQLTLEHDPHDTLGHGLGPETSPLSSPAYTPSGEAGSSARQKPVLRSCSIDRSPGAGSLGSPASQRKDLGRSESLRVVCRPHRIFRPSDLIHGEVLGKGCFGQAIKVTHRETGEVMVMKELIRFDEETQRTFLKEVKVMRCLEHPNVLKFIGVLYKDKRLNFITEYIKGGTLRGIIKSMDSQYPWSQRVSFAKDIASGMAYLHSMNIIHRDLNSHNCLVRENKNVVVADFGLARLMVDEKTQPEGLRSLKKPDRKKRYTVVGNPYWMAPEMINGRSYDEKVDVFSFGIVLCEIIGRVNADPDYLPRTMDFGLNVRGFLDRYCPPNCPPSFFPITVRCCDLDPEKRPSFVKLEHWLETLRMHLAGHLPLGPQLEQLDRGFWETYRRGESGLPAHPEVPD
T17 sequence (P07948 1-491 isoform P07948-2): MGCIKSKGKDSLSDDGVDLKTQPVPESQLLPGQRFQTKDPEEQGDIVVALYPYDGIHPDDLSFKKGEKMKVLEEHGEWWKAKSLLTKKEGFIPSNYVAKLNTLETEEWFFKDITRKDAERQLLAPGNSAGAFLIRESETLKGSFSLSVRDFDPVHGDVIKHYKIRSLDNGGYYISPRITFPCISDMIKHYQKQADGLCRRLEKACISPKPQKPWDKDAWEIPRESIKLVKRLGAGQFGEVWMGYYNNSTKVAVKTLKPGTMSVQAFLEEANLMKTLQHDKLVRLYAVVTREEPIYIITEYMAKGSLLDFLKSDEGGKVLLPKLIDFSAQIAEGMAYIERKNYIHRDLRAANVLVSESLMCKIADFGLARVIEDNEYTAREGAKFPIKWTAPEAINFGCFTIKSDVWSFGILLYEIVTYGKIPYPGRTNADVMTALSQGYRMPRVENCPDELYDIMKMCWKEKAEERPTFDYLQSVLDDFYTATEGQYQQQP
T1 sequence (P36896 24-505): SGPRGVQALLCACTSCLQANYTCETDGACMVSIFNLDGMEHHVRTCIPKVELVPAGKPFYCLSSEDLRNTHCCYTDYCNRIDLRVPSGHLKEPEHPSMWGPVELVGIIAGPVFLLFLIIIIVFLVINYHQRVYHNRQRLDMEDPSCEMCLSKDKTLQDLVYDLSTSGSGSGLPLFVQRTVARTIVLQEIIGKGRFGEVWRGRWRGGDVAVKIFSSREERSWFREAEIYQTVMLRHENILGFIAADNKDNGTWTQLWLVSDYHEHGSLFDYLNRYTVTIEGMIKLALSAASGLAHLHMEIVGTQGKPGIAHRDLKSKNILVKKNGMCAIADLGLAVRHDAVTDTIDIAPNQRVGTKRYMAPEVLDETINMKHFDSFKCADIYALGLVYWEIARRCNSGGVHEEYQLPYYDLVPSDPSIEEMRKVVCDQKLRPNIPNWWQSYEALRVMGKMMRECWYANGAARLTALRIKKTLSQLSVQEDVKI

CC(=O)Nc1nc2ccc(-c3cnc(C)c(NC(=O)OC4CCCCC4)c3)cc2s1 [PK68, cyclohexyl (5-(2-acetamidobenzo[d]thiazol-6-yl)-2-methylpyridin-3-yl)carbamate]
Activity% (ALK4/ACVR1B; 1 μM): 95.17% | activity at 1 µM (ALK4/ACVR1B): 95.5% | Activity% (ARAF; 1 μM): 60.01% | activity at 1 µM (ARAF): 60.5% | Activity% (AXL; 1 μM): 98.35% | activity at 1 µM (AXL): 98.8% | Activity% (CAMKK1; 1 μM): 111.65% | activity at 1 µM (CAMKK1): 113% | Activity% (CDK1/cyclin A; 1 μM): 96.92% | activity at 1 µM (CDK1/cyclin A): 97.2% | Activity% (CDK4/cyclin D1; 1 μM): 88.58% | activity at 1 µM (CDK4/cyclin D1): 88.8% | Activity% (CDK4/cyclin D3; 1 μM): 93.75% | activity at 1 µM (CDK4/cyclin D3): 94.2% | Activity% (CDK9/cyclin T1; 1 μM): 110.56% | activity at 1 µM (CDK9/cyclin T1): 111% | Activity% (DCAMKL1; 1 μM): 87.59% | activity at 1 µM (DCAMKL1): 87.7% | Activity% (EPHA5; 1 μM): 100.43% | activity at 1 µM (EPHA5): 102% | Activity% (ERBB2/HER2; 1 μM): 97.32% | activity at 1 µM (ERBB2/HER2): 99.1% | Activity% (ERN1/IRE1; 1 μM): 88.33% | activity at 1 µM (ERN1/IRE1): 88.7% | Activity% (FGFR4; 1 μM): 89.46% | activity at 1 µM (FGFR4): 89.9% | Activity% (GRK2; 1 μM): 99.02% | activity at 1 µM (GRK2): 101% | Activity% (JNK1; 1 μM): 97.06% | activity at 1 µM (JNK1): 98.7% | Activity% (LIMK1; 1 μM): 63.37% | activity at 1 µM (LIMK1): 63.4% | Activity% (LYN B; 1 μM): 97.70% | activity at 1 µM (LYN B): 98% | Activity% (MLCK/MYLK; 1 μM): 97.43% | activity at 1 µM (MLCK/MYLK): 99.7% | Activity% (NEK7; 1 μM): 103.37% | activity at 1 µM (NEK7): 105% | Activity% (PIM2; 1 μM): 111.50% | activity at 1 µM (PIM2): 114% | Activity% (PKA; 1 μM): 105.35% | activity at 1 µM (PKA): 105% | Activity% (PKCb2; 1 μM): 98.56% | activity at 1 µM (PKCb2): 100% | Activity% (PLK2; 1 μM): 102.02% | activity at 1 µM (PLK2): 102% | Activity% (SGK3/SGKL; 1 μM): 99.59% | activity at 1 µM (SGK3/SGKL): 102% | Activity% (SLK/STK2; 1 μM): 91.29% | activity at 1 µM (SLK/STK2): 91.9% | Activity% (STK32B/YANK2; 1 μM): 106.39% | activity at 1 µM (STK32B/YANK2): 107% | Activity% (TAOK3/JIK; 1 μM): 93.52% | activity at 1 µM (TAOK3/JIK): 94.6% | Activity% (TLK1; 1 μM): 97.39% | activity at 1 µM (TLK1): 99.2% | Activity% (TYK2; 1 μM): 100.62% | activity at 1 µM (TYK2): 106% | Activity% (VRK1; 1 μM): 104.78% | activity at 1 µM (VRK1): 105% | Activity% (WNK3; 1 μM): 106.32% | activity at 1 µM (WNK3): 107% | Activity% (ZAK/MLTK; 1 μM): 66.51% | activity at 1 µM (ZAK/MLTK): 68.6% | Activity% (p70S6K/RPS6KB1; 1 μM): 101.85% | activity at 1 µM (p70S6K/RPS6KB1): 102%
